Entries after “also recorded” stand apart in the source; their conditions may differ. Each block holds one molecule with its values, some of them ahead of it.
What was measured:
K562-R cells = test: Viability assay (Annexin V/7AAD), K562-R; format: cell-based, human; conditions: for IC50 / viability on co-treatment with ponatinib: K562-R; for IC50: read-out: TKI viability assay IC50; for viability on co-treatment with ponatinib: compared to control line
Description: (§1) Cells were removed from drug-containing culture medium, washed and re-cultured in fresh media (with testing drug) for 72 hours. Cells then were stained with 7-Amino-actinomycin D (7AAD) and Annexin V-PE. Flow cytometry (BD LSRFortessaTM X-20 with high-throughput platform) was performed to determine cell viability: cells stained positive for Annexin V-PE and 7AAD were considered to be apoptotic or dead respectively. The data were analysed using FCS Express software (DeNovo Software, Los Angeles, California, USA).

K562 DOX-R cells = test: Viability assay (Annexin V/7AAD), K562 DOX-R; format: cell-based, human; conditions: for IC50 / viability on co-treatment with ponatinib: K562 DOX-R; for IC50: read-out: TKI viability assay IC50; for viability on co-treatment with ponatinib: compared to control line
Description: as §1

K562 cells = test: Viability assay (Annexin V/7AAD), K562 control; format: cell-based, human; conditions: 200 nM ponatinib, three days
Description: (§2) Flow cytometry (BD LSRFortessaTM X-20 with high-throughput platform) was performed to determine cell viability: cells stained positive for Annexin V-PE and 7AAD were considered to be apoptotic or dead respectively. […]

K562 DOX cells = test: Viability assay (Annexin V/7AAD), K562 DOX control; format: cell-based, human; conditions: 200 nM ponatinib, three days
Description: as §2

K562-R-AXL KD cells = test: Viability assay, AXL knock-down K562-R; format: cell-based, human; conditions: 10 nM ponatinib, 72 hours, n=3
Description: (§3) Stable AXL knock-down K562-R-AXL KD, and K562 DOX-R-AXL KD cell lines were generated, as well as the scramble control lines K562-R-scramble CTL, and K562 DOX-R-scramble CTL.
as §1
(§4) The GFP level and Axl expression level were measured after fluorescence-activated cell sorting (FACS) and before each experiment to ensure purity.

[1] = test system: K562-R-scramble CTL cells; test: Viability assay, scramble shRNA K562-R; format: cell-based, human; conditions: K562-R scrambled shRNA control, 10 nM ponatinib, 72 hours, n=3
Description: as §3, §1, §4

K562 DOX-R-AXL KD cells = test: Viability assay, AXL knock-down K562 DOX-R; format: cell-based, human; conditions: 10 nM ponatinib, 72 hours, n=3
Description: as §3, §1, §4

[2] = test system: K562 DOX-R-scramble CTL cells; test: Viability assay, scramble shRNA K562 DOX-R; format: cell-based, human; conditions: K562 DOX-R scrambled shRNA control, 10 nM ponatinib, 72 hours, n=3
Description: as §3, §1, §4

[3] = 45 mg once daily; cited from earlier work
K562 DOX 55D-R cells = test: cells; conditions: Homo sapiens, K562, read-out: TKI viability assay IC50
Description: as §1

K562 T315I-R cells = test: cells; conditions: Homo sapiens, K562, read-out: TKI viability assay IC50
Description: as §1

Axl [4] = conditions: no reference given; cited from earlier work
Axl [5] = test system: Axl; parameters: method as in PMID 20080645, PMID 16230391, PMID 20603615, PMID 20145120; conditions: cited from earlier work

Structure (SMILES): Cc1ccc(C(=O)Nc2ccc(CN3CCN(C)CC3)c(C(F)(F)F)c2)cc1C#Cc1cnc2cccnn12 [ponatinib, 3-[2-(imidazo[1,2-b]pyridazin-3-yl)ethynyl]-4-methyl-N-{4-[(4-methylpiperazin-1-yl)methyl]-3-(trifluoromethyl)phenyl}benzamide]
- viability at 0.2 µM (K562-R cells; Homo sapiens, K-562R, 72 h): > 75%
- viability at 0.2 µM (K562 DOX-R cells; Homo sapiens, K562, 72 h): > 75%
- sensitivity to ponatinib (viability) (K562 cells): demonstrated sensitivity
- sensitivity to ponatinib (viability) (K562 DOX cells): demonstrated sensitivity
- reduction in viability (K562-R-AXL KD cells): 68%
- reduction in viability [1]: 22%
- reduction in viability (K562 DOX-R-AXL KD cells): 53%
- reduction in viability [2]: 16%
- medium human peak plasma level [3]: 145 nM
- medium human trough plasma level [3]: 64 nM

- IC50 (K562 DOX 55D-R cells): > 1000 nM
- IC50 (K562 T315I-R cells): > 1000 nM
- IC50 (K562-R cells; Homo sapiens, K-562R): > 1000 nM
- IC50 (K562 DOX-R cells; Homo sapiens): > 1000 nM
Structure (SMILES): Cc1cn(-c2cc(NC(=O)c3ccc(C)c(Nc4nccc(-c5cccnc5)n4)c3)cc(C(F)(F)F)c2)cn1 [nilotinib]

Structure (SMILES): CCOc1ccn(-c2ccc(F)cc2)c(=O)c1C(=O)Nc1ccc(Oc2ccnc(N)c2Cl)c(F)c1 [BMS-777607]
- viability on co-treatment with ponatinib (K562-R cells; 12.5 μM BMS777607 + 200 nM ponatinib, n=3, p=0.03): significantly reduced; also recorded: induced cell death significantly
- viability on co-treatment with ponatinib (K562 DOX-R cells; 12.5 μM BMS777607 + 200 nM ponatinib, n=4, p<0.01): significantly reduced; also recorded: induced cell death significantly
- potency against Axl relative to MET (Axl [4]): 3 times

- IC50 (K562 DOX 55D-R cells): > 200 nM
- IC50 (K562 T315I-R cells): > 200 nM
- IC50 (K562-R cells; Homo sapiens, K-562R): > 200 nM
- IC50 (K562 DOX-R cells; Homo sapiens): > 200 nM
Structure (SMILES): Cc1nc(Nc2ncc(C(=O)Nc3c(C)cccc3Cl)s2)cc(N2CCN(CCO)CC2)n1 [dasatinib]

Structure (SMILES): Nc1nc(Nc2ccc3c(c2)CCC(N2CCCC2)CC3)nn1-c1cc2c(nn1)-c1ccccc1CCC2 (stereo not drawn) [R428]
- viability on co-treatment with ponatinib (K562-R cells; 1 μM R428 + 200 nM ponatinib, n=3, p=0.02): significantly reduced; also recorded: induced cell death significantly
- viability on co-treatment with ponatinib (K562 DOX-R cells; 1 μM R428 + 200 nM ponatinib, n=4, p=0.02): significantly reduced; also recorded: induced cell death significantly
- specificity in targeting Axl over the other TAM family members (Mer and Tyro3) (Axl [5]): 50 to 100 fold
